Columns and labels:
mice = experiment: Scopolamine-induced cognitive impairment, spontaneous alternation behavior Y-maze test; format: in vivo; conditions: sulfuretin 1 mg/kg, p.o., one hour before test; scopolamine 0.5 mg/kg, i.p.
Procedure: Male ICR mice (4-weeks-old, 18-20 g) were purchased from Koatech Co., Ltd. (Pyongtaek, Korea). Mice were housed 10 per cage, allowed access to water and food ad libitum, and maintained in constant temperature (23±1° C.) and humidity (55±5%) conditions under a 12 hour light/dark cycle (lights on 07:00 to 19:00 h). All experiments were conducted in accord with the NIH Guide for the Care and Use of Laboratory Animals and with the approval of the Institutional Animal Care and Use Committee of Sungkyunkwan University.
The spontaneous alternation behavior was measured by Y-maze which consists of a horizontal maze (30 cm long and 5 cm wide, with walls 12 cm high) with three arms (labeled A, B, and C). The maze floor and walls are constructed of dark grey, polyvinyl plastic. Mice were initially placed within one arm, and the number of alternations (i.e., consecutive entry sequences of ABC, CAB, or BCA but not BAB) and the number of arm entries were manually recorded for each mouse over an 8 minutes period. One hour before each test, the mice were given sulfuretin (0.25, 0.5, or 1 mg/kg, p.o.). After 30 minutes, memory impairment was induced by administering scopolamine (0.5 mg/kg, i.p.). […] The percentage alternation was calculated according to the following equation: Percentage alternation=[(Number of alternations)/(Total arm entries−2)]×100. […]

Tau = experiment: Western blot, amyloid beta25-35-induced hyperphosphorylation of Tau; format: cell-based, human; conditions: SH-SY5Y cells; pretreatment with sulfuretin at 20 μM; 20 μM amyloid beta25-35 (p<0.01)
β-CTF = experiment: Western blot, β-CTF level; format: cell-based, human; conditions: Swedish APP mutant SH-SY5Y cells; sulfuretin 2.5, 5, 10 and 20 μM for 24 h; dose-dependent (p<0.001)
Procedure: For the experiments shown in FIGS. 11 to 13, SH-SY5Y and stable swedish APP mutant SH-SY5Y cells were grown in DMEM supplemented with 10% heat-inactivated FBS and 0.1% penicillin/streptomycin at 37° C. in a humidified atmosphere of 5% CO2 and 95% air. Cells were fed every three days and sub-cultured once they reached 80-90% confluency in […] cell culture dishes. Amyloid beta25-35 was prepared as a 20 mM stock immediately before use and diluted in PBS to the indicated final concentration. Prior to use, amyloid beta25-35 was dissolved in sterilized distilled water and was aggregated at 37° C. for five days. The test compounds were dissolved in DMSO and the stock solutions were added directly to the culture media to a final concentration of 0.1% (v/v) DMSO.
SH-SY5Y and stable swedish APP mutant SH-SY5Y cells (1×10^6 cells/well in 6-well plates) were incubated at 37° C. with or without 20 μM amyloid beta 25-35 for 6 or 24 h, with or without sulfuretin pretreatment, and then washed and harvested with ice-cold PBS and centrifuged at 400×g for 3 minutes. […] The protein concentration was determined using a protein assay kit (Thermo Scientific). […] Protein bands were quantified by densitometric analysis using Image Gauge 4.0 software (Fujifilm, Stamford, Conn., USA). […]

O=C1/C(=C/c2ccc(O)c(O)c2)Oc2cc(O)ccc21 [sulfuretin]
significantly inhibited: decrease of spontaneous alternation behavior induced by scopolamine (mice) | amyloid beta25-35-mediated increases in phosphorylation of Tau proteins (Tau) | β-CTF level (β-CTF)

From patent US20150031760A1, “PHARMACEUTICAL COMPOSITION FOR PREVENTING OR TREATING NERVOUS SYSTEM DISORDERS COMPRISING SULFURETIN OR PHARMACEUTICALLY ACCEPTABLE SALT THEREOF” (Research and Business Foundation SUNGKYUNKWAN UNIVERSITY, priority 2010, published 2015)
